From US4036834A, “Derivatives of 7-(α-hydroxy-substituted pyridyl carboxamido-α p h Δ^3 -cephem-4-carboxylic acid” (Yamanouchi Pharmaceutical Co., Ltd., priority 1974, dated 1977)
In brackets after ≈: the same amount, converted by molar mass. Like-named read-outs stand apart in the source and are kept apart here.

Columns and labels:
Proteus vulgaris OXK US = experiment: MIC against Proteus vulgaris OXK US; type: cell-based; details: Proteus vulgaris OXK US; read-out: MIC
From the text: (§1) Now, for illustrating the excellent pharmacological effects of the compounds of this invention, the values of MIC (γ/ml) of the compounds against various bacteria are shown in the following table, the compounds of this invention are shown by example numbers.
1: Proteus vulgaris OXK US

Staphylococcus Onuma = experiment: MIC against Staphylococcus Onuma; type: cell-based
From the text: as §1

[1] = water solubility, naked-eye observation of solutions; type: physicochemical
From the text: Then, the experimental results showing the excellent water solubility of the compounds of this invention are illustrated in the following table, the results being the observation results by the naked eyes of the solutions thereof in each concentration as shown in the table.

salmonella typhi H901W = experiment: microbe, parasite or virus in culture; type: cell-based; details: Salmonella enterica
[2] = system: bacillus megatherium 10778; experiment: MIC against bacillus megatherium 10778; type: cell-based; details: bacillus megatherium 10778; read-out: MIC
From the text: as §1

[3] = system: Pseudomonas ovalis IAM 1002; experiment: MIC against Pseudomonas ovalis IAM 1002; type: cell-based; details: Pseudomonas putida, IAM1002
From the text: as §1
6: Pseudomonas ovalis IAM 1002

salmonella enteritidis = experiment: MIC against salmonella enteritidis; type: cell-based; details: Salmonella enterica; salmonella enteritidis; read-out: MIC
From the text: as §1
10: salmonella enteritidis

[4] = system: staphylococcus Shimanishi; experiment: MIC against staphylococcus Shimanishi; type: cell-based
From the text: as §1
17. staphylococcus Shimanishi

[5] = system: staphylococcus aureus 209P; experiment: MIC against staphylococcus aureus 209P; type: cell-based
From the text: as §1
16: staphylococcus aureus 209P

[6] = system: micrococcus flavus ATCC 10240; experiment: MIC against micrococcus flavus ATCC 10240; type: cell-based; details: ATCC10240; micrococcus flavus ATCC 10240; read-out: MIC
From the text: as §1

[7] = system: Bacillus subtilis ATCC 6633; experiment: MIC against Bacillus subtilis ATCC 6633; type: cell-based; details: ATCC6633; Bacillus subtilis ATCC 6633; read-out: MIC
From the text: as §1
14: Bacillus subtilis ATCC 6633

[8] = system: pseudomonas aeruginosa 99 (Gentamycin resistant); experiment: MIC against pseudomonas aeruginosa 99 (Gentamycin resistant); type: cell-based
From the text: as §1
5: pseudomonas aeruginosa 99 (Gentamycin resistant)

[9] = system: Klebsiella pneumoniae ATCC 10031; experiment: MIC against Klebsiella pneumoniae ATCC 10031; type: cell-based; details: ATCC10031
From the text: as §1
8: Klebsiella pneumoniae ATCC 10031

[10] = system: proteus mirabilis IFM OM-19; experiment: MIC against proteus mirabilis IFM OM-19; type: cell-based; details: IFMOM19
From the text: as §1
3. proteus mirabilis IFM OM-19

[11] = system: Shigella flexnori 2a 1675; experiment: MIC against Shigella flexnori 2a 1675; type: cell-based; details: 2A1675
From the text: as §1

Shigella sonnei II 37148 = experiment: MIC against Shigella sonnei II 37148; type: cell-based; details: II37148
From the text: as §1

proteus vulgaris OX 19US = experiment: MIC against proteus vulgaris OX 19US; type: cell-based; details: OX19US
From the text: as §1
2. proteus vulgaris OX 19US

[12] = system: escherichia coli Kauffman 0-1; experiment: MIC against escherichia coli Kauffman 0-1; type: cell-based
From the text: as §1
7: escherichia coli Kauffman 0-1

[13] = system: pseudomonas aeruginosa ATCC 8689; experiment: MIC against pseudomonas aeruginosa ATCC 8689; type: cell-based; details: ATCC8689
From the text: as §1
4: pseudomonas aeruginosa ATCC 8689

[14] = proteus vulgaris OX 19US, read-out: MIC
[15] = Staphylococcus Onuma, read-out: MIC
[16] = staphylococcus Shimanishi, read-out: MIC
[17] = escherichia coli Kauffman 0-1, read-out: MIC
[18] = pseudomonas aeruginosa ATCC 8689, read-out: MIC
[19] = Pseudomonas ovalis IAM 1002, read-out: MIC
[20] = Klebsiella pneumoniae ATCC 10031, read-out: MIC
[21] = pseudomonas aeruginosa 99 (Gentamycin resistant), read-out: MIC

| SMILES | MIC (Proteus vulgaris OXK US) | MIC (salmonella typhi H901W) | MIC [2] | MIC [3] | MIC (salmonella enteritidis) | MIC ([5]; read-out: MIC) | MIC [6] | MIC [7] | MIC ([8]; Pseudomonas aeruginosa) | MIC ([9]; Klebsiella pneumoniae) | MIC [10] | MIC [11] | MIC (Shigella sonnei II 37148) | MIC (proteus vulgaris OX 19US; [14]) | MIC (Staphylococcus Onuma; [15]) | MIC [4, 16] | MIC [12, 17] | MIC [13, 18] | MIC [9, 20] | MIC [8, 21] | other results |
| --- | --- | --- | --- | --- | --- | --- | --- | --- | --- | --- | --- | --- | --- | --- | --- | --- | --- | --- | --- | --- | --- |
| Cc1c(S)sc(SCC2=C(C(=O)O)N3C(=O)[C@@H](NC(=O)[C@H](NC(=O)c4cnccc4O)c4ccccc4)[C@H]3SC2)c(C)c1=O [Example 3, 7-[D-α-(4-hydroxynicotinoylamido)-α-phenylacetamido]-3-(3,5-dimethyl-6-mercapto-4-oxo-4H-thiopyran-2-yl)thiomethyl-Δ^3-cephem-4-carboxylic acid] | 0.19 µg/mL (≈ 0.283 µM) | 3.13 µg/mL (≈ 4.67 µM) | 0.19 µg/mL (≈ 0.283 µM) | 6.25 µg/mL (≈ 9.32 µM) | 0.78 µg/mL (≈ 1.16 µM) | 1.56 µg/mL (≈ 2.33 µM) | 1.56 µg/mL (≈ 2.33 µM) | 0.78 µg/mL (≈ 1.16 µM) | 12.5 µg/mL (≈ 18.6 µM) | 12.5 µg/mL (≈ 18.6 µM) | 0.78 µg/mL (≈ 1.16 µM) | 6.25 µg/mL (≈ 9.32 µM) | 12.5 µg/mL (≈ 18.6 µM) | 0.39 µg/mL (≈ 0.581 µM) | – | – | – | – | – | – | MIC (Staphylococcus Onuma; Staphylococcus): 12.5 µg/mL (≈ 18.6 µM); water solubility (appearance of solution by the naked eyes) ([1]; concentration 1%): clear; water solubility (appearance of solution by the naked eyes) ([1]; concentration 5%): clear; water solubility (appearance of solution by the naked eyes) ([1]; concentration 10%): clear; water solubility (appearance of solution by the naked eyes) ([1]; concentration 20%): clear; MIC ([4]; Staphylococcus): 6.25 µg/mL (≈ 9.32 µM); MIC ([12]; Escherichia coli): 12.5 µg/mL (≈ 18.6 µM); MIC ([13]; Pseudomonas aeruginosa): 12.5 µg/mL (≈ 18.6 µM) |
| CSc1nc(S)cc(SCC2=C(C(=O)O)N3C(=O)[C@@H](NC(=O)[C@H](NC(=O)c4cnccc4O)c4ccccc4)[C@H]3SC2)n1 [Example 7, 7-[D-α-(4-hydroxynicotinoylamido)-α-phenylacetamido]-3-(4-mercapto-2-methylthiopyrimidin-6-yl)thiomethyl-Δ^3-cephem-4-carboxylic acid] | 0.78 µg/mL (≈ 1.19 µM) | 0.78 µg/mL (≈ 1.19 µM) | 0.39 µg/mL (≈ 0.594 µM) | 12.5 µg/mL (≈ 19 µM) | 0.39 µg/mL (≈ 0.594 µM) | – | 0.78 µg/mL (≈ 1.19 µM) | 0.19 µg/mL (≈ 0.289 µM) | 12.5 µg/mL (≈ 19 µM) | 12.5 µg/mL (≈ 19 µM) | 0.78 µg/mL (≈ 1.19 µM) | 12.5 µg/mL (≈ 19 µM) | 25 µg/mL (≈ 38.1 µM) | 0.39 µg/mL (≈ 0.594 µM) | 3.13 µg/mL (≈ 4.77 µM) | 0.78 µg/mL (≈ 1.19 µM) | 25 µg/mL (≈ 38.1 µM) | 25 µg/mL (≈ 38.1 µM) | – | – | MIC [5]: 0.19 µg/mL (≈ 0.289 µM) |
| CC(=O)OCC1=C(C(=O)O)N2C(=O)[C@@H](NC(=O)[C@H](N)c3ccccc3)[C@H]2SC1 [Cephaloglycin, reference compound] | 25 µg/mL (≈ 61.7 µM) | 3 µg/mL (≈ 7.4 µM) | 1 µg/mL (≈ 2.47 µM) | – | 3 µg/mL (≈ 7.4 µM) | 1 µg/mL (≈ 2.47 µM) | 0.3 µg/mL (≈ 0.74 µM) | 0.3 µg/mL (≈ 0.74 µM) | > 100 µg/mL | – | 100 µg/mL (≈ 247 µM) | 3 µg/mL (≈ 7.4 µM) | 10 µg/mL (≈ 24.7 µM) | 100 µg/mL (≈ 247 µM) | 3 µg/mL (≈ 7.4 µM) | 3 µg/mL (≈ 7.4 µM) | 100 µg/mL (≈ 247 µM) | > 100 µg/mL | 25 µg/mL (≈ 61.7 µM) | – | MIC [3, 19]: > 100 µg/mL |
| CC(=O)Nc1nc(S)nc(SCC2=C(C(=O)O)N3C(=O)[C@@H](NC(=O)[C@H](NC(=O)c4cnccc4O)c4ccccc4)[C@H]3SC2)n1 [Example 4, 7-[D-α-(4-hydroxynicotinoylamido)-α-phenylacetamido]-3-(4-mercapto-6-acetylamino-1,3,5-triazin-2-yl)thiomethyl-Δ^3-cephem-4-carboxylic acid] | 0.19 µg/mL (≈ 0.284 µM) | 0.39 µg/mL (≈ 0.583 µM) | 0.39 µg/mL (≈ 0.583 µM) | – | 0.78 µg/mL (≈ 1.17 µM) | 1.56 µg/mL (≈ 2.33 µM) | 6.25 µg/mL (≈ 9.35 µM) | 0.78 µg/mL (≈ 1.17 µM) | – | 12.5 µg/mL (≈ 18.7 µM) | 0.39 µg/mL (≈ 0.583 µM) | 12.5 µg/mL (≈ 18.7 µM) | 12.5 µg/mL (≈ 18.7 µM) | 6.25 µg/mL (≈ 9.35 µM) | 6.25 µg/mL (≈ 9.35 µM) | 6.25 µg/mL (≈ 9.35 µM) | 6.25 µg/mL (≈ 9.35 µM) | 50 µg/mL (≈ 74.8 µM) | – | 50 µg/mL (≈ 74.8 µM) | MIC [3, 19]: 50 µg/mL (≈ 74.8 µM) |
| O=C(O)C1=C(CSc2cc(S)ncn2)CS[C@@H]2[C@H](NC(=O)[C@H](NC(=O)c3cnccc3O)c3ccccc3)C(=O)N12 [Example 5, 7-[D-α-(4-hydroxynicotinoylamido)-α-phenylacetamido]-3-(4-mercaptopyrimidin-6-yl)thiomethyl-Δ^3-cephem-4-carboxylic acid] | < 0.09 µg/mL | < 0.09 µg/mL | 0.19 µg/mL (≈ 0.311 µM) | 6.25 µg/mL (≈ 10.2 µM) | 0.39 µg/mL (≈ 0.639 µM) | 0.78 µg/mL (≈ 1.28 µM) | 3.13 µg/mL (≈ 5.13 µM) | 0.39 µg/mL (≈ 0.639 µM) | – | – | 0.19 µg/mL (≈ 0.311 µM) | 6.25 µg/mL (≈ 10.2 µM) | 6.25 µg/mL (≈ 10.2 µM) | 0.78 µg/mL (≈ 1.28 µM) | – | 3.13 µg/mL (≈ 5.13 µM) | 3.13 µg/mL (≈ 5.13 µM) | 25 µg/mL (≈ 40.9 µM) | 3.13 µg/mL (≈ 5.13 µM) | 25 µg/mL (≈ 40.9 µM) | MIC (Staphylococcus Onuma; Staphylococcus): 6.25 µg/mL (≈ 10.2 µM) |
| Cc1nc(S)cc(SCC2=C(C(=O)O)N3C(=O)[C@@H](NC(=O)[C@H](NC(=O)c4cnccc4O)c4ccccc4)[C@H]3SC2)n1 [Example 2, 7-[D-α-(4-hydroxynicotinoylamido)-α-phenylacetamido]-3-(2-methyl-4-mercaptopyrimidin-6-yl)thiomethyl-Δ ^3-cephem-4-carboxylicacid] | 0.19 µg/mL (≈ 0.304 µM) | 0.19 µg/mL (≈ 0.304 µM) | 0.19 µg/mL (≈ 0.304 µM) | 12.5 µg/mL (≈ 20 µM) | 0.19 µg/mL (≈ 0.304 µM) | 0.39 µg/mL (≈ 0.624 µM) | 3.13 µg/mL (≈ 5.01 µM) | 0.39 µg/mL (≈ 0.624 µM) | 12.5 µg/mL (≈ 20 µM) | – | 0.39 µg/mL (≈ 0.624 µM) | 12.5 µg/mL (≈ 20 µM) | 12.5 µg/mL (≈ 20 µM) | 1.56 µg/mL (≈ 2.5 µM) | 6.25 µg/mL (≈ 10 µM) | 3.13 µg/mL (≈ 5.01 µM) | 6.25 µg/mL (≈ 10 µM) | – | 3.13 µg/mL (≈ 5.01 µM) | – | water solubility (appearance of solution by the naked eyes) ([1]; concentration 1%): clear; water solubility (appearance of solution by the naked eyes) ([1]; concentration 5%): clear; water solubility (appearance of solution by the naked eyes) ([1]; concentration 10%): clear; water solubility (appearance of solution by the naked eyes) ([1]; concentration 20%): slightly turbid; MIC ([13]; Pseudomonas aeruginosa): 12.5 µg/mL (≈ 20 µM) |
| Nc1nc(S)cc(SCC2=C(C(=O)O)N3C(=O)[C@@H](NC(=O)[C@H](NC(=O)c4cnccc4O)c4ccccc4)[C@H]3SC2)n1 [Example 6] | 0.19 µg/mL (≈ 0.304 µM) | 0.19 µg/mL (≈ 0.304 µM) | 0.78 µg/mL (≈ 1.25 µM) | 12.5 µg/mL (≈ 20 µM) | 0.39 µg/mL (≈ 0.623 µM) | 0.78 µg/mL (≈ 1.25 µM) | 3.13 µg/mL (≈ 5 µM) | 0.78 µg/mL (≈ 1.25 µM) | – | – | 1.56 µg/mL (≈ 2.49 µM) | 12.5 µg/mL (≈ 20 µM) | 12.5 µg/mL (≈ 20 µM) | – | 6.25 µg/mL (≈ 9.99 µM) | 3.13 µg/mL (≈ 5 µM) | 6.25 µg/mL (≈ 9.99 µM) | 100 µg/mL (≈ 160 µM) | 6.25 µg/mL (≈ 9.99 µM) | 50 µg/mL (≈ 79.9 µM) | MIC (proteus vulgaris OX 19US; Proteus vulgaris): 12.5 µg/mL (≈ 20 µM) |
